The subject of the test is A549 cells. The test is described as follows: Cell cycle analysis (flow cytometry, PI). The conditions noted are these: 35 and 65 µM, 24 h. In kind it is cell-based, human. The protocol: For flow cytometric analysis of the cell cycle distribution, floating and adherent cells were harvested together 24 h after treatment with the derivatives (35 and 65 µM), washed in cold PBS, fixed in cold 70% ethanol, and stored overnight at −20 °C. Prior to analysis, the cells were washed twice in PBS, resuspended in a staining solution (0.1% Triton X-100, 0.137 g L^−1 ribonuclease A and 0.02 g L^−1 propidium iodide—PI), and incubated in dark conditions at RT for 30 min. The DNA content was analyzed using a BD FACSCalibur flow cytometer (Becton Dickinson, San Jose, CA, USA) with a 488 nm argon-ion excitation laser, and fluorescence was detected using a 585/42 nm band-pass filter (FL-2). ModFit 3.0 software (Verity Software House, Topsham, ME, USA) was used to generate DNA content frequency histograms and to quantify the percentage of cells in the individual cell cycle phases. The results are presented as the average ratio of cells in the individual phase to all cells from three independent experiments.
Background: A flow cytometer gives signals particle by particle.

On to `COC(=O)Cc1cc(=O)oc2cc(OCCCCCCCCN3CCN(CCNC(=O)Cc4cc(=O)oc5cc(O)ccc45)CC3)ccc12` [12e, Methyl 2-[7-({2-[4-(2-{[2-(7-hydroxy-2-oxo-2H-4-chromenyl)acetyl]amino}etyl)piperazino]oktyl}oxy)-2-oxo-2H-4-chromenyl]acetate], for which the “Cell cycle distribution, G0/G1 phase (in words)” value is “increase in the percentage of the cell population in the G0/G1 phase”.

For the origin of these results see article PMC8068036, “Synthesis of New Biscoumarin Derivatives, In Vitro Cholinesterase Inhibition, Molecular Modelling and Antiproliferative Effect in A549 Human Lung Carcinoma Cells” (International Journal of Molecular Sciences, 2021).
